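In this assay, cells in 96-well plates receive the compound at five concentrations for 48 hours. Endpoints are linearly interpolated between the surrounding concentrations. At the GI50, growth is halved.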 Calls of active or inactive are those of the source. Rule as the data show it: active = GI50 up to about 1.1 µM and inactive = higher.
What was measured:
Test in all cases: NCI anticancer screen, dose series, 48 h
786-0 = tested on: 786-0
A498 = tested on: A498
A549 = tested on: A549
ACHN = tested on: ACHN
BT-549 = tested on: BT-549
CAKI-1 = tested on: CAKI-1
CCRF-CEM = tested on: CCRF-CEM
COLO 205 = tested on: COLO 205
DU-145 = tested on: DU-145
EKVX = tested on: EKVX
HCT-116 = tested on: HCT-116
HCT-15 = tested on: HCT-15
HL-60 = tested on: HL-60
HOP-62 = tested on: HOP-62
HOP-92 = tested on: HOP-92
HT-29 = tested on: HT-29
Hs-578T = tested on: Hs-578T
IGROV-1 = tested on: IGROV-1
K562 = tested on: K562
KM12 = tested on: KM12
LOX IMVI = tested on: LOX IMVI
M14 = tested on: M14
MCF7 = tested on: MCF7
MDA-MB-231 = tested on: MDA-MB-231
MDA-MB-435 = tested on: MDA-MB-435
MDA-N = tested on: MDA-N
MOLT-4 = tested on: MOLT-4
Malme-3M = tested on: Malme-3M
NCI-H226 = tested on: NCI-H226
NCI-H23 = tested on: NCI-H23
NCI-H522 = tested on: NCI-H522
NCI/ADR-RES = tested on: NCI/ADR-RES
OVCAR-3 = tested on: OVCAR-3
OVCAR-5 = tested on: OVCAR-5
OVCAR-8 = tested on: OVCAR-8
RPMI-8226 = tested on: RPMI-8226
RXF 393 = tested on: RXF 393
SF-268 = tested on: SF-268
SF-295 = tested on: SF-295
SF-539 = tested on: SF-539
SK-MEL-2 = tested on: SK-MEL-2
SK-MEL-5 = tested on: SK-MEL-5
SK-OV-3 = tested on: SK-OV-3
SN12C = tested on: SN12C
SNB-19 = tested on: SNB-19
SNB-75 = tested on: SNB-75
SR = tested on: SR
SW-620 = tested on: SW-620
T47D = tested on: T47D
TK-10 = tested on: TK-10
UACC-257 = tested on: UACC-257
UACC-62 = tested on: UACC-62
UO-31 = tested on: UO-31

`CCc1ccc(Nc2cc(=O)n(C)c(SCc3ccccc3)n2)cc1` was tested. Which GI50 (786-0) did it give?
Its GI50 is 17.5 µM (inactive).

What about the GI50 (A498) of the same molecule?
The GI50 was 14.5 µM (inactive).

And the GI50 (A549)?
The GI50 was 29 µM (inactive).

And the GI50 (ACHN)?
Its GI50 is 75.3 µM (inactive).

What about the GI50 (BT-549) of the same molecule?
Its GI50 is > 100 µM (inactive).

What about the GI50 (CAKI-1) of the same molecule?
Its GI50 is > 100 µM (inactive).

And the GI50 (CCRF-CEM)?
Its GI50 is 78 µM (inactive).

And the GI50 (COLO 205)?
Its GI50 is 12.7 µM (inactive).

What about the GI50 (DU-145) of the same molecule?
The GI50 was > 100 µM (inactive).

And the GI50 (EKVX)?
Its GI50 is 60.5 µM (inactive).

What about the GI50 (HCT-116) of the same molecule?
The GI50 was 18.2 µM (inactive).

What about the GI50 (HCT-15) of the same molecule?
The GI50 was 62.2 µM.

And the GI50 (HL-60)?
The GI50 was 39.8 µM (inactive).

What about the GI50 (HOP-62) of the same molecule?
Its GI50 is 69.3 µM (inactive).

And the GI50 (HOP-92)?
The GI50 was 20.3 µM (inactive).

And the GI50 (HT-29)?
Its GI50 is 21.9 µM (inactive).

And the GI50 (Hs-578T)?
The GI50 was 97.3 µM (inactive).

And the GI50 (IGROV-1)?
The GI50 was 83.9 µM (inactive).

And the GI50 (K562)?
Its GI50 is > 100 µM (inactive).

And the GI50 (KM12)?
The GI50 was 66.4 µM (inactive).

What about the GI50 (LOX IMVI) of the same molecule?
The GI50 was 33 µM (inactive).

What about the GI50 (M14) of the same molecule?
Its GI50 is > 100 µM (inactive).

And the GI50 (MCF7)?
Its GI50 is 28.6 µM (inactive).

And the GI50 (MDA-MB-231)?
The GI50 was 59.7 µM (inactive).

What about the GI50 (MDA-MB-435) of the same molecule?
Its GI50 is 80.4 µM (inactive).

And the GI50 (MDA-N)?
Its GI50 is > 100 µM (inactive).

What about the GI50 (MOLT-4) of the same molecule?
The GI50 was > 100 µM (inactive).

What about the GI50 (Malme-3M) of the same molecule?
The GI50 was 57.3 µM (inactive).

What about the GI50 (NCI-H226) of the same molecule?
Its GI50 is 33.4 µM (inactive).

And the GI50 (NCI-H23)?
The GI50 was > 100 µM (inactive).

And the GI50 (NCI-H522)?
The GI50 was 36.1 µM (inactive).

And the GI50 (NCI/ADR-RES)?
The GI50 was > 100 µM (inactive).

And the GI50 (OVCAR-3)?
The GI50 was 29.4 µM (inactive).

What about the GI50 (OVCAR-5) of the same molecule?
Its GI50 is 30.8 µM (inactive).

What about the GI50 (OVCAR-8) of the same molecule?
The GI50 was > 100 µM (inactive).

What about the GI50 (RPMI-8226) of the same molecule?
The GI50 was > 10 µM (inactive).

What about the GI50 (RXF 393) of the same molecule?
Its GI50 is 23.1 µM (inactive).

And the GI50 (SF-268)?
Its GI50 is 97.7 µM (inactive).

What about the GI50 (SF-295) of the same molecule?
The GI50 was 57.4 µM (inactive).

And the GI50 (SF-539)?
The GI50 was 30.2 µM (inactive).

And the GI50 (SK-MEL-2)?
The GI50 was > 100 µM (inactive).

What about the GI50 (SK-MEL-5) of the same molecule?
The GI50 was 51.2 µM (inactive).

And the GI50 (SK-OV-3)?
Its GI50 is 85.1 µM (inactive).

And the GI50 (SN12C)?
Its GI50 is 20 µM (inactive).

And the GI50 (SNB-19)?
Its GI50 is 52.6 µM (inactive).

And the GI50 (SNB-75)?
Its GI50 is > 100 µM (inactive).

What about the GI50 (SR) of the same molecule?
Its GI50 is 35.7 µM (inactive).

And the GI50 (SW-620)?
The GI50 was 41.6 µM (inactive).

What about the GI50 (T47D) of the same molecule?
The GI50 was 95.3 µM (inactive).

And the GI50 (TK-10)?
The GI50 was > 100 µM (inactive).

What about the GI50 (UACC-257) of the same molecule?
Its GI50 is > 100 µM (inactive).

And the GI50 (UACC-62)?
Its GI50 is > 100 µM (inactive).

And the GI50 (UO-31)?
The GI50 was > 100 µM (inactive).

From ChEMBL document CHEMBL1201862, “PubChem BioAssay data set” (2004)
